From ChEMBL document CHEMBL2401725, “Synthesis of new chromeno-annulated cis-fused pyrano[4,3-c]isoxazole derivatives via intramolecular nitrone cycloaddition and their cytotoxicity evaluation” (Bioorg Med Chem Lett, 2013)
pIC50: −log10 of the molar value.

How the values were obtained:
Assay type in all cases: functional, cell-based
MCF7 = experiment: Cytotoxicity against human MCF7 cells by MTT assay
MDA-MB-231 = experiment: Cytotoxicity against human MDA-MB-231 cells by MTT assay
A549 = experiment: Cytotoxicity against human A549 cells by MTT assay
HeLa = experiment: Cytotoxicity against human HeLa cells by MTT assay

| Structure (SMILES) | pIC50 (MCF7) | pIC50 (MDA-MB-231) | pIC50 (A549) | pIC50 (HeLa) |
| --- | --- | --- | --- | --- |
| Cc1coc2c3c(ccc2c1=O)OC[C@H]1[C@@H]3N(Cc2ccccc2)OC1(C)C | < 4.00 | < 4.00 | < 4.00 | 5.18 |
| Cc1oc2c3c(ccc2c(=O)c1C)OC[C@H]1[C@@H]3N(Cc2ccccc2)OC1(C)C | 5.24 | 4.84 | 4.75 | < 4.00 |
| Cc1ccc(CN2OC(C)(C)[C@H]3COc4ccc5c(=O)c(C)coc5c4[C@H]32)cc1 | 5.28 | < 4.00 | < 4.00 | < 4.00 |
| Cc1ccc(CN2OC(C)(C)[C@H]3COc4ccc5c(=O)c(C)c(C)oc5c4[C@H]32)cc1 | 4.58 | 5.25 | 5.05 | 4.74 |
| Cc1oc2c3c(ccc2c(=O)c1C)OC[C@H]1[C@@H]3N(Cc2ccc(F)cc2)OC1(C)C | 5.00 | 5.10 | 4.89 | 5.02 |
| COc1cccc2c1C(=O)c1c(O)c3c(c(O)c1C2=O)C[C@@](O)(C(=O)CO)C[C@@H]3O[C@H]1C[C@H](N)[C@H](O)[C@H](C)O1 [DOXORUBICIN] | 5.98 | 6.30 | 5.92 | 6.35 |
| COc1ccc(CN2OC(C)(C)[C@H]3COc4ccc5c(=O)c(-c6ccccc6)c(C)oc5c4[C@H]32)cc1 | < 4.00 | < 4.00 | < 4.00 | < 4.00 |
| COc1ccc(CN2OC(C)(C)[C@H]3COc4ccc5c(=O)c(C)coc5c4[C@H]32)cc1 | 5.13 | < 4.00 | 4.53 | 5.18 |
| Cc1coc2c3c(ccc2c1=O)OC[C@H]1[C@@H]3N(C2CCCCC2)OC1(C)C | 4.64 | 4.76 | 6.71 | 4.76 |
| Cc1oc2c3c(ccc2c(=O)c1C)OC[C@H]1[C@@H]3N(C2CCCCC2)OC1(C)C | < 4.00 | 5.12 | 5.05 | < 4.00 |
| Cc1oc2c3c(ccc2c(=O)c1C)OC[C@H]1[C@@H]3N(Cc2ccc(C(C)C)cc2)OC1(C)C | 5.10 | 5.20 | < 4.00 | < 4.00 |
| COc1ccc(CN2OC(C)(C)[C@H]3COc4ccc5c(=O)c(C)c(C)oc5c4[C@H]32)cc1 | 5.25 | 5.11 | 4.95 | < 4.00 |
